The record followed here is patent publication US11059807B2, “Amine cationic lipids and uses thereof” (Dicerna Pharmaceuticals, Inc., priority 2011, dated 2021).

The structures appear in SMILES notation.

In data set [1] the test system is HPRT1 mRNA in mouse liver. Description: In vivo knockdown of HPRT1 mRNA in mouse liver, lipid particles with DsiRNA. The following applies: CD1 mice; for % mRNA Knockdown: single IV dose 5 mg/kg, HPRT1 DsiRNA; for % mRNA Knockdown / mrna remaining at 5 mg/kg: 48 hours; for gene silencing at the lower dose: single dose 1 mg/kg, FIG. 12; for mrna remaining at 5 mg/kg: Mus musculus, single dose 5 mg/kg, FIG. 11, read-out: remaining mRNA levels. As for the experimental part:
Formulations were prepared with the following approximate percentages: 20 mol % of one of either L-1, L-2, L-5, L-6, L-7, L-8, L-22, or L-30; 26 mol % of DODMA; 3 mol % of PEG2000-DMPE; 3 mol % of PEG2000-DMG; 13 mol % of DSPC; and 33 mol % of cholesterol. The formulation further included a DsiRNA:total lipid ratio of about 1:20 (w/w).
Approximately 4-week old CD1 female mice were administered a single dose (either 1 mg/kg or 5 mg/kg) of the lipid particle formulation with a dosing volume of 10 μL/g of body weight by intravenous administration via a tail vein. After 48 hours (post-dosing), tissues were collected in RNALater (Qiagen). In the end point analysis, the total RNA was isolated from the mouse liver for RT-qPCR. The RNA sample was heated at 70° C., for 5 minutes with Oligo(dT) primers before RT. In the PCR reaction, mHPRT expression was normalized with RPL23 (a housekeeping gene, used as a control herein). FIGS. 11 and 12 show data with error bars with mean±SD for n=5 animals/group.

Data set [2] can be described thus: TNS fluorescence method, apparent pKa of lipid in formulation. The format is physicochemical. Conditions: apparent pKa of the formulation, pH at half-maximal TNS fluorescence. From the text: The TNS fluorescence method may be used to determine the apparent pKa of the lipid in the formulation. TNS (2-(p-toluidino)-6-naphthalene sulfonic acid) is a negatively charged fluorescent dye whose fluorescence is quenched in the presence of water. […] The increase in the fluorescence can thus be used to estimate the ionization of a cationic lipid when present in different pH environment. Methods of determining pKa using TNS are known in the art, e.g., as described in the Examples.
To determine pKa values of the cationic lipids of the invention, formulations (concentration of 1 mM) were incubated in phosphate buffer at different pH values, to which TNS dissolved in DMSO was added (resulting final concentration of 6 μM TNS). Fluorescence of the resulting solution was measured on a SpectraMax® M3 fluorescence plate reader with excitation wavelength of 325 nm and emission wavelength of 435 nm. The measured fluorescence of TNS was fitted with a three-parameter sigmoidal function shown in equation 1.
The pH at which half of the maximum fluorescence was reached was reported as the apparent pKa of the formulation, where a and b are dimensionless parameters reflecting the maximum observed fluorescence and slope of the sigmoidal function, respectively.

For data set [3], the system named is Hep3B tumor. Description: Hepatocellular carcinoma anti-tumor efficacy, orthotopic Hep3B model (serum AFP, tumor weight). The format is in vivo, mouse. The following applies: 5 mg/kg active DsiRNA IV, vs control payload and PBS; for reducing serum AFP: FIG. 15; for reducing tumor weight: FIG. 16. From the text:
Liver tumors were established in mice by direct intrahepatic injection of Hep3B tumor cells as described in Example 10. About two weeks after tumor implantation, mice were randomized into treatment groups. Mice (n=6 per group) received: either (1) the amino-amine or amino-amide lipid formulation of a control dsRNA; (2) the amino-amine or amino-amide lipid formulation of an active dsRNA; or (3) vehicle control, as administered by standard intravenous (i.v.) injection via the lateral tail vein. The dose was calculated based on mg of dsRNAs/kg of body weight basis according to individual animal weights. In the experiments that generated the results shown in FIGS. 15 and 16, animals were dosed at 5 mg/kg DsiRNA with L-6- or L-30-formulated lipid particles. Table 8 above presents specific compositions of lipid formulations comprising the L-6 and L-30 lipids used in the instant studies.
Body weights were monitored throughout the duration of the study as an indicator of developing tumor burden and treatment tolerability. For efficacy studies, defined humane end points were determined as a surrogate for survival. Assessments were made based on a combination of clinical signs, weight loss, and abdominal distension to define the day of euthanization due to tumor burden. Tumor tissues were removed from the animals of different treatment groups and tumor weights were measured to determine efficacy of different treatment groups. Serum α-fetoprotein (AFP) levels were also measured as a biomarker for tumor burden.

Data set [4] is described as follows: Tolerability of lipid formulations in CD-1 mice (serum clinical chemistry, body weight, liver). The format is in vivo, mouse. The following applies: female CD-1 mice, 2 doses (qod) 10 mg/kg DsiRNA. The protocol:
In order to assess the tolerability of a lipid formulation containing an amino-amine or amino-amide cationic lipid of the invention and a dsRNA, female CD-1 mice were injected with L-6 and L-30 formulations [administered in 2 doses (qod) at 10 mg/kg DsiRNA dose, about 200 mg/kg total lipid dose each] and serum samples were collected 48 hours after the second dose. Serum samples were tested for a panel of clinical chemistry assessments, including liver function tests (LFTs) via measurement of enzymes alanine transaminase (ALT) and aspartate transaminase (AST). Phosphate buffered saline (PBS) was used as vehicle control group. ALT and AST elevation was <3x of PBS group for formulations L-6 and L-30. There were also no changes in body weight or liver observed for L-6 and L-30 formulations. Thus, L-6 and L-30 formulations were well-tolerated. Thus, any of the lipids described herein, and formulations thereof, would be useful for the delivery of one or more agent, e.g., polyanionic or antisense payloads.

The test system of data set [5] is HPRT1 mRNA in liver tissues. The data set can be described thus: HepG2 orthotopic liver tumor model: HPRT1 mRNA knockdown in liver. The format is in vivo, mouse. The following applies: 5 mg/kg DsiRNA IV, Table 8 formulation, FIG. 14. From the text: In order to assess the efficiency of targeting and subsequent functionality of an amino-amine or amino-amide cationic lipid formulation of dsRNA, a second intrahepatic tumor model was utilized. Liver tumors were established in mice by direct intrahepatic injection of HepG2 tumor cells. Female nu/nu mice were used as hosts for the HepG2 tumors. Maintaining the mice under anesthesia using Avertin (Sigma), a single 1-cm incision across the midline was made below the sternum, and the left lateral hepatic lobe is exteriorized. Approximately 3×10^6 HepG2 cells suspended in 60 μL of 50% PBS/50% Matrigel™ (BD) are injected slowly into the lobe at a shallow angle using a Hamilton syringe and a 30-gauge needle. A swab was then applied to the puncture wound to stop any bleeding prior to suturing. Mice were allowed to recover from anesthesia in a sterile cage and monitored closely for 2-4 hours before being returned to conventional housing. About three weeks after tumor implantation, mice were randomized into treatment groups. […] The dose was calculated based on mg of dsRNAs/kg of body weight basis according to individual animal weights. […] Body weights were monitored throughout the duration of the study as an indicator of developing tumor burden and treatment tolerability. For efficacy studies, defined humane end points were determined as a surrogate for survival. […]

As to `CCCCC/C=C\C/C=C\CCCCCCCCC(CCCCCCCC/C=C\C/C=C\CCCCC)N1CCN(C)CC1` [Compound L-6], in data set [1], the “% mRNA Knockdown” value worked out at 88.2%, the “gene silencing at the lower dose” value is listed as “effective gene silencing” and the mrna remaining at 5 mg/kg is 15 to 45%. Moreover, the pKa in data set [2] is 5.6. In addition, in data set [3], the “reducing serum AFP” value is “remarkably effective” and the reducing tumor weight entry was “remarkably effective”. In addition, in data set [4], the “changes in body weight or liver” value was “no changes” and the tolerability entry is given as “well-tolerated”. The “delivery of anti-HPRT1 DsiRNA payload to liver tissues” value in data set [5] was “remarkably effective”.

Regarding `CCCCC/C=C\C/C=C\CCCCCCCCC(CCCCCCCC/C=C\C/C=C\CCCCC)NC(=O)CN(C)C` [Compound L-30], in data set [1], the “% mRNA Knockdown” value amounted to 86.4%, the “gene silencing at the lower dose” value is “effective gene silencing” and the mrna remaining at 5 mg/kg is approximately 15%. Also, the pKa in data set [2] was 5.8. Further, in data set [3], the “reducing serum AFP” value is given as “remarkably effective” and the reducing tumor weight result is listed as “remarkably effective”. In data set [4], the “changes in body weight or liver” value was “no changes” and the tolerability result is recorded as “well-tolerated”. Further, the “delivery of anti-HPRT1 DsiRNA payload to liver tissues” value in data set [5] is reported as “remarkably effective”.
